Laboratory results: US20250090466A1, “DRUG DELIVERY COMPOSITIONS AND DEVICES” (Ohio State Innovation Foundation, priority 2022, published 2025)

Experiments:
[1] = assumed input value, ref (20); cited from earlier work
[2] = Rose Bengal release from dense PCL capsules with silicone oil carriers into PBS; format: physicochemical; settings: Silikon 1000 in dense PCL capsule

Compound: O=C([O-])c1c(Cl)c(Cl)c(Cl)c(Cl)c1-c1c2cc(I)c(=O)c(I)c-2oc2c(I)c([O-])c(I)cc12.[Na+].[Na+] [Rose Bengal, Rose Bengal sodium salt]
- RB diffusivity in PBS [1]: 4.8×10^−10 m^2 s^−1
- dissolution of Rose Bengal in hydrophobic silicone oil [2]: never dissolves in the oil
